What was measured:
[1] = system: BRCA wild-type BxPc-3 cell line; assay: In vitro cell proliferation inhibition (CTG); assay type: cell-based; settings: for IC50: Homo sapiens, BXPC-3, BxPc-3, 3 h treatment, 72 h
Source text: (§1) The applicant specially studied in vitro cell proliferation inhibition of Capan-1 and BxPc-3 cell lines by the hypoxia-activated anti-cancer prodrugs TH-302 and tirapazamine under normoxia and hypoxia. The Capan-1 cell line was a BRCA-mutated cell line, and the BxPc-3 cell line was a BRCA wild-type (i.e., non-BRCA-mutated) cell line. This experiment was intended to verify the difference of the hypoxia-activated anti-cancer prodrugs, TH-302 and tirapazamine, in sensitivity to BRCA mutations.
(§2) • 1) Capan-1/BxPc-3 cell suspensions were added to two types of 24-well plates, 495 μL each well. Density of the cells was 6×10^4 per well. 24-well plates with glass inserts were used in hypoxic tests, and ordinary plastic 24-well plates were used in normoxic tests. • 2) The cells were incubated overnight in an incubator at 37° C. in 5% CO2. • 3) Compound Processing
(§3) A hypoxia workstation was tuned to create a hypoxic environment (O2<0.01%), and an oxygen indicator was used to confirm the hypoxia in the workstation.
(§4) 24 hours after cell seeding, the 24-well plates with glass inserts were transferred into the hypoxia workstation.
(§5) The 24-well plates were placed on vortex shakers, uncovered and shaken to allow air exchange for 5 minutes.
(§6) To each well in a monotherapy group, a 100× test compound solution was added.
(§7) 24 hours after cell seeding, 5 μL of the 100× test compound solution was added to each well. Three replicate wells were set up for each test group.

[2] = system: BRCA-mutated Capan-1 cell line; assay: In vitro cell proliferation inhibition (CTG); assay type: cell-based, human; settings: for IC50: Homo sapiens, CAPAN-1, Capan-1, 3 h treatment, 72 h
Source text: as §1, §2, §3, §4, §5, §6, §7

`Nc1n[n+]([O-])c2ccccc2[n+]1[O-]` [tirapazamine, reference compound] was tested, and the “Ratio (21% O2/0.01% O2)” value ([1]; BxPc-3) was greater than 60.19, the IC50 ([1]; 21% O2) was greater than 2000 µM and the IC50 ([1]; <0.01% O2) was 33.2 µM. For the same compound, the “Ratio (21% O2/0.01% O2)” value ([2]; Capan-1) was greater than 68.82, the IC50 ([2]; 21% O2) was greater than 2000 µM and the IC50 ([2]; <0.01% O2) was 29.1 µM.

Reference: patent US20250387419A1, “PARP INHIBITOR-RESISTANT PATIENT TREATED WITH TH-302” (ASCENTAWITS PHARMACEUTICALS, LTD., priority 2021, published 2025)
